In patent US10548877B2, “Aromatic ring compound” (TAKEDA PHARMACEUTICAL COMPANY LIMITED, priority 2016, dated 2020):

Target: T1, human M1 receptor (hCHRM1) (Homo sapiens, UniProt P11229)
T1 construct: expressed in transfected cells
T1 sequence (P11229 1-460): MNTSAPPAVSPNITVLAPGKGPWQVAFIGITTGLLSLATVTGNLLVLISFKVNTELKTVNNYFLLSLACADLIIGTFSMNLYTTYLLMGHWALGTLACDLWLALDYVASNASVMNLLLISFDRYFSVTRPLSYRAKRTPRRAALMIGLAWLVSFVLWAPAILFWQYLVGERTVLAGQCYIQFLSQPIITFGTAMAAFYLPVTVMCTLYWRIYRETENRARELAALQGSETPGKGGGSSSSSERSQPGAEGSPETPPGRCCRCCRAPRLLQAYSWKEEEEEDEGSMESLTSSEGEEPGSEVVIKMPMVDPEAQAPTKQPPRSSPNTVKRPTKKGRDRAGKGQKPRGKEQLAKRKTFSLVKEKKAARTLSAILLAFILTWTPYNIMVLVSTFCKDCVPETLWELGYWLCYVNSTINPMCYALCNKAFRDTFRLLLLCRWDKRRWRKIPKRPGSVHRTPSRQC
Assay: Measurement of M1 receptor positive allosteric modulator (M1PAM) activity (calcium fluorescence, Fluo-4)
Type: cell-based
Conditions: for EC50: inflection point of concentration-dependent curve, CHO-K1 cells stably expressing hCHRM1, in presence of acetylcholine at EC20 (final 0.8-1.0 nM), read-out: IP value; for activity (%) at 10 μM: test compound 10 μM with acetylcholine at EC20, 100% = 1 μM acetylcholine, 0% = DMSO, CHO-K1 cells expressing hCHRM1
Description: Measurement of M1 Receptor Positive Allosteric Modulator (M1PAM) Activity
The activity of a test compound in the presence of acetylcholine at EC20 concentration (final concentration 0.8-1.0 nM), which affords an action corresponding to about 20% of the maximum activity, was measured as PAM activity. The method is as follows. CHO-K1 cells stably expressing a human M1 receptor (hCHRM1) were plated on a 384-well black clear bottom plate (BD Falcon) at 5,000 cells/well, and cultured in an incubator at 37° C., 5% CO2 for 1 day. The medium in the cell plate was removed, and assay buffer A containing a calcium indicator (Recording medium (DOJINDO LABORATORIES), 0.1% BSA (Wako Pure Chemical Industries, Ltd.), 2.5 μg/mL Fluo-4 AM (DOJINDO LABORATORIES), 0.08% Pluronic F127 (DOJINDO LABORATORIES) and 1.25 mM probenecid (DOJINDO LABORATORIES) were added at 30 μL/well. The cells were left standing in the incubator at 37° C., 5% CO2 for 30 min, and further left standing at room temperature for 30 min. A test compound prepared by diluting with assay buffer B (HBSS (Invitrogen), 20 mM HEPES (Invitrogen), 0.1% BSA) containing 3.2-4.0 nM acetylcholine was added at 10 μL/well, and the fluorescence was measured by FDSS/pcell (Hamamatsu Photonics K.K.) for 1 min every for 1 second. With the definition that the amount of change in the fluorescence on addition of acetylcholine (final concentration 1 μM) is 100% and that on addition of DMSO instead of a test compound is 0%, the activity (%) of the test compound was calculated, and the inflection point in the concentration-dependent curve of the test compound was calculated as IP values.

**Q.** What does the source list for `COc1c(C(=O)N[C@H]2CCC[C@@H]2O)cc(Cc2ccc(-n3cccn3)cc2)c(C)c1C` (relative stereo) [Example 2, N-(trans-2-hydroxycyclopentyl)-2-methoxy-3,4-dimethyl-5-(4-(1H-pyrazol-1-yl)benzyl)benzamide]?
**A.** EC50: 95 nM; activity (%) at 10 μM: 96%

**Q.** Which EC50 does the source give for `COc1c(C(=O)N[C@H]2CCC[C@@H]2O)cc(Cc2ccc(-c3cn(C)nn3)cc2)c(C)c1C` (relative stereo) [Example 4, N-(trans-2-hydroxycyclopentyl)-2-methoxy-3,4-dimethyl-5-(4-(1-methyl-1H-1,2,3-triazol-4-yl)benzyl)benzamide] here?
**A.** 23 nM

**Q.** And the “activity (%) at 10 μM” value?
**A.** 108%

**Q.** For `COc1c(C(=O)N[C@H]2CCCC[C@@H]2O)cc(Cc2ccc(-c3cn(C)nn3)cc2)c(C)c1C` (relative stereo) [Example 5, N-(trans-2-hydroxycyclohexyl)-2-methoxy-3,4-dimethyl-5-(4-(1-methyl-1H-1,2,3-triazol-4-yl)benzyl)benzamide], which EC50 is on record?
**A.** 12 nM

**Q.** And the “activity (%) at 10 μM” value?
**A.** 105%

**Q.** With `COc1c(C(=O)N[C@H]2CCCC[C@@H]2O)cc(Cc2ccc(-c3cn(C)nn3)cc2)c(C)c1C` (single isomer, unassigned) [Example 10, N-(trans-2-hydroxycyclohexyl)-2-methoxy-3,4-dimethyl-5-(4-(1-methyl-1H-1,2,3-triazol-4-yl)benzyl)benzamide] as the compound, how does the EC50 read?
**A.** 4.8 nM

**Q.** And the “activity (%) at 10 μM” value?
**A.** 106%

**Q.** Which results are given for `COc1c(C(=O)N[C@@H]2CCCC[C@H]2O)cc(Cc2ccc(-c3cn(C)nn3)cc2)c(C)c1C` (single isomer, unassigned) [Example 11, N-(trans-2-hydroxycyclohexyl)-2-methoxy-3,4-dimethyl-5-(4-(1-methyl-1H-1,2,3-triazol-4-yl)benzyl)benzamide]?
**A.** EC50: 37 nM; activity (%) at 10 μM: 97%

**Q.** Which results are given for `COc1c(C(=O)NCC2CCCO2)cc(Cc2ccc(-c3cn(C)nn3)cc2)c(C)c1C` (stereo not shown) [Example 6, 2-methoxy-3,4-dimethyl-5-(4-(1-methyl-1H-1,2,3-triazol-4-yl)benzyl)-N-(tetrahydrofuran-2-ylmethyl)benzamide]?
**A.** EC50: 23 nM; activity (%) at 10 μM: 107%

**Q.** What does the source list for `Cc1c(Cc2ccc(-n3cccn3)cc2)cc(C(=O)N[C@H]2COCC[C@@H]2O)c(F)c1C` [Example 12, 2-fluoro-N-((3S,4S)-4-hydroxytetrahydro-2H-pyran-3-yl)-3,4-dimethyl-5-(4-(1H-pyrazol-1-yl)benzyl)benzamide]?
**A.** EC50: 19 nM; activity (%) at 10 μM: 103%

**Q.** What does the source list for `COc1c(C(=O)N[C@H]2COCC[C@@H]2O)cc(Cc2ccc(-c3cn(C)nn3)cc2)c(C)c1C` [Example 13, N-((3S,4S)-4-hydroxytetrahydro-2H-pyran-3-yl)-2-methoxy-3,4-dimethyl-5-(4-(1-methyl-1H-1,2,3-triazol-4-yl)benzyl)benzamide]?
**A.** EC50: 9.4 nM; activity (%) at 10 μM: 102%

**Q.** How did the EC50 turn out when `COc1c(C(=O)N[C@H]2CCCC[C@@H]2O)cc(Cc2ccc(-n3ccnn3)cc2)c(C)c1C` [Example 14, N-((1S,2S)-2-hydroxycyclohexyl)-2-methoxy-3,4-dimethyl-5-(4-(1H-1,2,3-triazol-1-yl)benzyl)benzamide] was run?
**A.** 8.6 nM

**Q.** And the “activity (%) at 10 μM” value?
**A.** 98%

**Q.** What does the source list for `CCOc1c(C(=O)N[C@H]2CCCC[C@@H]2O)cc(Cc2ccc(-c3cn(C)nn3)cc2)c(C)c1C` [Example 15, 2-ethoxy-N-((1S,2S)-2-hydroxycyclohexyl)-3,4-dimethyl-5-(4-(1-methyl-1H-1,2,3-triazol-4-yl)benzyl)benzamide]?
**A.** EC50: 14 nM; activity (%) at 10 μM: 100%

**Q.** How did the EC50 turn out when `Cc1c(Cc2ccc(-c3cn(C)nn3)cc2)cc(C(=O)N[C@H]2CCCC[C@@H]2O)c(OC(C)C)c1C` [Example 16, N-((1S,2S)-2-hydroxycyclohexyl)-2-isopropoxy-3,4-dimethyl-5-(4-(1-methyl-1H-1,2,3-triazol-4-yl)benzyl)benzamide] was run?
**A.** 30 nM

**Q.** And the “activity (%) at 10 μM” value?
**A.** 99%
